The subject of series [1] is complement alternative pathway. Briefly: Biological Test Example 2: complement alternative pathway inhibition, IBL alternative pathway kit, serum from healthy volunteers. Type of series: biochemical, human. The following applies: LPS-coated plate, 37 °C 1 h, read-out: IC50 for inhibiting alternative pathway. On the procedure: The inhibitory effect of the compounds on the complement alternative pathway was detected using the IBL alternative pathway kit (COMPL AP330 RUO). Serum from healthy volunteers was collected and 1 portion was diluted with a buffer of 20 mM EDTA in gelatin (0.15 mM CaCl2, 141 mM NaCl, 4.5 mM MgCl2, 4.2 mM HEPES, and 0.1% gelatin at pH 7.4) to 50% (v/v), and 1 portion was diluted to 50% (v/v) with a buffer of 20 mM EGTA in gelatin. The compounds were prepared in DMSO to a working solution 100 times the final concentration. Before use, 50% of the above serum was diluted 1/18 with the AP diluent in the kit. 1 part of the compound working solution (v/v) or DMSO (positive control PC) was added to 99 parts of the diluted serum containing EGTA for pretreatment for 30 min, and 1 part of DMSO (v/v) was added to 99 parts of the diluted serum containing EDTA, as negative control (NC). The serum pretreated with the above compounds (or DMSO) was added at […] to the LPS-coated 96-well plate, incubated at 37° C. for 1 h, and the plate was washed 3 times with washing solution in the kit; the conjugated chromogenic substrate was added according to the instruction in the kit, and the absorbance was read at 405 nm with a microplate reader. The inhibitory activity of the compounds on alternative pathway was calculated using the following formula.
OD^CPD was the OD value when the inhibitor was added, OD^NC was the OD value of the negative control, and OD^PC was the OD value of the positive control.
Graphpad was used to perform nonlinear regression on the final concentrations and inhibition rates of the compounds to obtain the IC50 of the compounds for inhibiting the alternative pathway.

A further series concerns the target FB (Homo sapiens, UniProt P00751). The experiment in a line: biochemical.
Series [2] is described as follows: Pharmacokinetic test of dogs. Type of series: in vivo. The following applies: male, beagle, dog, plasma, po, i.g. (5 mg/kg). On the procedure: Test objective: In this experiment, a single dose of test compounds was administered to beagle dogs intravenously and intragastrically, and the concentrations of the test compounds in plasma of the beagle dogs were measured to evaluate pharmacokinetic characteristics of the test compounds in the beagle dogs.
Experimental animals: Male beagle dogs, 8-11 kg, 1-3 years old, 6 dogs/compound. purchased from Beijing Marshall Biotechnology Co. Ltd.
Experimental method: on the day of the test, 6 beagle dogs were randomly grouped according to their body weights. The animals were fasted with water available for 14 to 18 hours one day before the administration of a test compound, and were fed 4 hours after the administration.
Sampling: Before and after the administration, 1.0 mL of blood was taken from the jugular veins or limb veins, and placed in an EDTAK2 centrifuge tube. Centrifugation was carried out at 5000 rpm at 4° C. for 10 min, and the plasma was collected.
(§1) Time points for plasma collection in IV&PO group: 0, 5 min, 15 min, 30 min, 1 h, 2 h, 4 h, 6 h, 8h, 10 h, 12h, and 24 h.
(§2) Before analysis and detection, all samples were stored at −60° C. The samples were analyzed quantitatively by LC-MS/MS.

Another series can be described thus: Caco2 permeability test. Type of series: in vitro ADME. The following applies: human, pH 7.4, Caco-2 monolayer, 2 μM, 2 h. The procedure: (§3) The experiment used a monolayer of Caco-2 cells incubated in triplicate in a 96-well Transwell plate. […] Acetonitrile containing internal standard was then added to precipitate the protein. […] The integrity of the cell monolayer after 2 h of incubation was assessed by leakage of Lucifer Yellow.
(Caco-2 cells form a polarised layer with tight junctions and transporters.)

A further series concerns Caco-2 cells. The experiment in a line: Caco2 permeability test. In kind it is in vitro ADME. The following applies: Caco2, compared with the trifluoroacetate of LNP023, in words. The procedure: as §3
A short description of series [3]: Pharmacokinetic test in rats. In kind it is in vivo, SD rats. The following applies: for maximum plasma concentration in rats / oral bioavailability in rats / time to peak: compared with LNP023, in words; for bioavailability / Cmax / Tmax / half-life / AUC(0-t): male, SD, rat, plasma, po, i.g. (10 mg/kg); for bioavailability / Cmax / Tmax / half-life / AUC(0-t) / time to peak: rats; for AUC(0-t): read-out: AUC0-24 h. On the procedure: Test objective: In this experiment, a single dose of each test compound was administered to SD rats intravenously and intragastrically, and the concentrations of the test compounds in plasma of rats were measured to evaluate the pharmacokinetic characteristics of the test compounds in rats.
Experimental animals: male SD rats, 200-250 g, 6-8 weeks old, 6 rats/compound, purchased from Chengdu Ddossy Experimental Animals Co., Ltd.
Experimental method: on the day of the test, 6 SD rats were randomly grouped according to their body weight. The animals were fasted with water available for 12 to 14 hours one day before the administration of a test compound, and were fed 4 hours after the administration.
Sampling: Before and after the administration, 0.15 mL of blood sample was drawn from the orbit under isoflurane anesthesia, and placed in an EDTAK2 centrifuge tube. Centrifugation was carried out at 5000 rpm at 4° C. for 10 min, and the plasma was collected.
Time points for plasma collection in IV&PO group: 0, 5 min, 15 min, 30 min, 1 h, 2 h, 4 h, 6 h, 8 h, and 24 h.
as §2

Series [4] is described as follows: Pharmacokinetic experiment in monkeys. In kind it is in vivo, cynomolgus monkeys. The following applies: for bioavailability in monkeys / oral exposure in monkeys: compared with the trifluoroacetate of LNP023, in words; for bioavailability / AUC(0-t): male, cynomolgus monkey, plasma, po, monkeys, i.g. (5 mg/kg). The procedure: Test objective: In this experiment, a single dose of test compounds was administered to cynomolgus monkeys intravenously and intragastrically, and the concentrations of the test compounds in plasma of the monkeys were measured to evaluate pharmacokinetic characteristics of the test compounds in the monkeys.
Experimental animals: Male cynomolgus monkeys, 3-5 kg, 3-6 years old, 6 monkeys/compound. Purchased from Suzhou Xishan Biotechnology Inc.
Experimental method: on the day of the test, 6 monkeys were randomly grouped according to their body weights. The animals were fasted with water available for 14 to 18 hours one day before the administration of a test compound, and were fed 4 hours after the administration.
Sampling: before and after the administration, 1.0 mL of blood was taken from the limb veins, and placed in an EDTAK2 centrifuge tube. Centrifugation was carried out at 5000 rpm at 4° C. for 10 min, and the plasma was collected.
as §1, §2

Experimental findings from US20260035385A1, “BENZO NITROGEN-CONTAINING HETEROAROMATIC RING DERIVATIVE AND USE THEREOF IN MEDICINE” (Xizang Haisco Pharmaceutical Co., Ltd., priority 2021, published 2026) are described below.

SMILES strings stand for the structures. Where a name gives a salt, the structure may show the parent alone.

Chain of FB (P00751 260-764 limits assumed): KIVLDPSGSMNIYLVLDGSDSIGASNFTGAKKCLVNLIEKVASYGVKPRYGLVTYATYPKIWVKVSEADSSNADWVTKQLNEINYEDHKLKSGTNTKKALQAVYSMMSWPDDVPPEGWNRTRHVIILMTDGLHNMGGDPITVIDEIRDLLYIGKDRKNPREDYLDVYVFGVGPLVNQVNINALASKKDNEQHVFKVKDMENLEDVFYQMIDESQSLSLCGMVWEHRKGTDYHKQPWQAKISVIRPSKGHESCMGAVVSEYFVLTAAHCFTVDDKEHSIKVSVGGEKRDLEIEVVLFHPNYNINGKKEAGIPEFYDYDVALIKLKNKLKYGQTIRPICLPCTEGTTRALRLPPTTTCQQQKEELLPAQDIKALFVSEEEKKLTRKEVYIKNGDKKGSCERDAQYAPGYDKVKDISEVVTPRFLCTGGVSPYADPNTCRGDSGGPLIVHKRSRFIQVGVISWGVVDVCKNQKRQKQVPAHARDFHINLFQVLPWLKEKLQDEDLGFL
Chain of FB (Q91132 23-649 partner limits assumed): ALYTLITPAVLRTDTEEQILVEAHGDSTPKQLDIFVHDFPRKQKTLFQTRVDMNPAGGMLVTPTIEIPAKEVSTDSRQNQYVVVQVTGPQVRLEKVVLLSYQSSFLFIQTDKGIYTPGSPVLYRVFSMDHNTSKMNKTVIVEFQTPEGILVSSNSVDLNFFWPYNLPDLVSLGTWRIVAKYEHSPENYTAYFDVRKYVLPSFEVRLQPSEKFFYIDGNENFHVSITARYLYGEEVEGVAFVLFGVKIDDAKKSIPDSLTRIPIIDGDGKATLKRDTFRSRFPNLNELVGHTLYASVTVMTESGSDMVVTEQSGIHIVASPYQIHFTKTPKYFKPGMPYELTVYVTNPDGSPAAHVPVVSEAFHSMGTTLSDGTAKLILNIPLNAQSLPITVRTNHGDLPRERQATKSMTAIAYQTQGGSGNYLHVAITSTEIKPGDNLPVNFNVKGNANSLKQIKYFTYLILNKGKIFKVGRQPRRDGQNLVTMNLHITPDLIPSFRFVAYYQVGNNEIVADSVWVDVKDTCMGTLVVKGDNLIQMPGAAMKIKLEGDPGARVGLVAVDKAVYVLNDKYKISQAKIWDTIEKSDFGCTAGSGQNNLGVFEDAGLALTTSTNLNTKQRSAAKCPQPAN
Chain of FB (Q91132 733-984 partner limits assumed): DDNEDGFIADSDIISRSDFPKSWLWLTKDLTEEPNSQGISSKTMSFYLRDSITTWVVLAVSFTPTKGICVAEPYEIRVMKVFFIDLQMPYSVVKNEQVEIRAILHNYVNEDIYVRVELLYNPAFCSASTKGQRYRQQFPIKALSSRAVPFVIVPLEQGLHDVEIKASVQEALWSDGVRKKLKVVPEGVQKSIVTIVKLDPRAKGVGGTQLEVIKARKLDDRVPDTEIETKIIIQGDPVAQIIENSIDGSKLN
Chain of FB (Q91132 1264-1642 partner limits assumed): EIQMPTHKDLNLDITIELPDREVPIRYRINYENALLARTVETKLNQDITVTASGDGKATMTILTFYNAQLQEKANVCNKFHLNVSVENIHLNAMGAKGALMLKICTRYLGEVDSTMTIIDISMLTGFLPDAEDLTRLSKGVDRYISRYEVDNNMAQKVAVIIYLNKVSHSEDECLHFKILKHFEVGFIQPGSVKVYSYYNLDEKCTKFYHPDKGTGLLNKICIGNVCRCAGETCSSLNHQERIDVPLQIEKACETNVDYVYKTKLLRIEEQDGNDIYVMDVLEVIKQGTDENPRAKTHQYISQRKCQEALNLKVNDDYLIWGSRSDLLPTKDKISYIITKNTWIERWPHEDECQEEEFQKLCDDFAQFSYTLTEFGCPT
Procedure for FB: CVF (1 μM), FB (1 μM) and FD (300 nM) were incubated in Assay buffer (pH=7.4, 10 mM MgCl2, 0.05% (m/v), CHAPS) for 3 h at room temperature, so that all FB was cleaved into Baby FD and CVF:Bb complex was generated. SDS-PAGE analysis confirmed that FB was completely hydrolyzed, that is, the concentration of the generated CVF:Bb complex was 300 nM. The CVF:Bb complex was diluted to a concentration of 5 nM using Assay buffer and preincubated with different concentrations of the compounds in assay buffer for 1 h at room temperature. C3 was added to a final concentration of 1 μM to start the enzymatic reaction. After reacting at room temperature for 1 h, protease inhibitor mixture (Roche Complete Inhibitor Tablets) was added to stop the enzyme reaction. Human C3a ELISA kit (Hycult HK354-01) was used to determine the generation of C3a according to the instruction in the kit. The FB activity inhibition rate was plotted against the inhibitor concentration, and graphpad nonlinear regression was used to calculate the IC50 value.

One may read the IC50 as the concentration that gives 50% inhibition. Turning to `COc1cc(C)c2[nH]ccc2c1CN1CCC(C2CCCC2)C[C@H]1c1ccc(C(=O)O)cc1` (single isomer, unassigned) [Ammonium of compound 11 (diastereomer 1)], the IC50 in series [1] was under 0.2 µM.

On to `COc1cc(C)c2[nH]ccc2c1CN1CCN(C2CC2)CC1c1ccc(C(=O)O)cc1` (single isomer, unassigned) [Compound 27-1, 4-(4-cyclopropyl-1-((5-methoxy-7-methyl-1H-indol-4-yl)methyl)piperazin-2-yl)benzoic acid], for which the IC50 in series [1] is under 0.2 µM.

Consider `COc1cc(C)c2[nH]ccc2c1CN1CCC(C2CCC2)C[C@H]1c1ccc(C(=O)O)cc1` (single isomer, unassigned) [Formate of [compound 8 (diastereomer 1)]], for which, in series [1], the IC50 is under 0.2 µM.

As for `COCC1CCN(Cc2c(OC)cc(C)c3[nH]ccc23)[C@H](c2ccc(C(=O)O)cc2)C1` (single isomer, unassigned) [Trifluoroacetate of compound 1-a], the IC50 in series [1] was under 0.2 µM; at FB, under 0.5 µM.

Take `COc1cc(C)c2[nH]ccc2c1CN1CCC2(CCCO2)C[C@H]1c1ccc(C(=O)O)cc1` (single isomer, unassigned) [Trifluoroacetate of compound 2-a (diastereomer 1)]: the IC50 in series [1] was under 0.2 µM.

Take `[2H]C([2H])([2H])Oc1cc(C)c2[nH]ccc2c1CN1CCC2(CCCO2)C[C@H]1c1ccc(C(=O)O)cc1` (single isomer, unassigned) [Trifluoroacetate of compound 6]: the IC50 in series [1] is under 0.2 µM; on FB, under 0.5 µM.

For `COc1cc(C)c2[nH]ccc2c1CN1CCC(C2CC2)=C[C@H]1c1ccc(C(=O)O)cc1` [Ammonium salt of compound 12, (S)-4-(4-cyclopropyl-1-((5-methoxy-7-methyl-1H-indol-4-yl)methyl)-1,2,5,6-tetrahydropyridin-2-yl)benzoic acid], the IC50 in series [1] was under 0.2 µM.

Broadly, the bioavailability is the share of a dose that reaches the circulation, judged against a reference dose that is usually intravenous. By half-life is commonly meant how long it takes for the measured level to halve. One may read the efflux ratio as a quotient of directional permeabilities that is used to spot active efflux. For orientation: Papp A→B means the apparent permeability from the apical to the basolateral side of a cell layer. The term Papp B→A denotes the apparent permeability from the basolateral to the apical side of a cell layer. In general, Cmax refers to the peak of the concentration-time curve. Broadly, the Tmax is the time at which the peak concentration occurs. Take `C#C[C@H]1CCN(Cc2c(OC)cc(C)c3[nH]ccc23)[C@H](c2ccc(C(=O)O)cc2)C1` [Compound 10 (diastereomer 1), 4-((2S)-4-ethynyl-1-((5-methoxy-7-methyl-1H-indol-4-yl)methyl)piperidin-2-yl)benzoic acid]: in series [2], the bioavailability came out at 56.2%, the AUC(0-t) turned out to be 25300 ng·h/mL and the half-life was 8.89 h. Further, in “Caco2 permeability test”, the efflux ratio at 2 h, 2 μM was 4.62; the Papp A→B at 2 h, 2 μM was determined as 2.62 ×10⁻⁶ cm/s; the Papp B→A at 2 h, 2 μM stood at 12.1 ×10⁻⁶ cm/s. Also, in the series on Caco-2 cells, the efflux ratio result is listed as “lower” and the permeability result is listed as “better”. In series [3], the “maximum plasma concentration in rats” value was “higher”, the “oral bioavailability in rats” value is recorded as “higher”, the bioavailability amounted to 57.8% and the highest level (Cmax) was 2240 ng/mL. In series [3], the Tmax came to 0.333 h, the half-life is 4.15 h, the AUC(0-t) was found to be 7920 ng·h/mL and the time to peak entry is “shorter”. In addition, the IC50 in series [1] was under 0.2 µM.

On to `C#CCC1CCN(Cc2c(OC)cc(C)c3[nH]ccc23)[C@H](c2ccc(C(=O)O)cc2)C1` (stereo partly drawn) [Compound 13, 4-((2S)-1-((5-methoxy-7-methyl-1H-indol-4-yl)methyl)-4-(prop-2-yn-1-yl)piperidin-2-yl)benzoic acid], for which, in series [4], the bioavailability in monkeys result is given as “higher”, the “oral exposure in monkeys” value is reported as “higher”, the bioavailability is 70.5 ± 4.5% and the AUC(0-t) came to 16600 ± 1070 ng·h/mL. In series [2], this compound had a bioavailability of over 60%, an AUC(0-t) of 36100 ng·h/mL and a half-life of 7.26 h. Moreover, in “Caco2 permeability test”, the efflux ratio at 2 h, 2 μM stood at 8.18; the apparent permeability from apical to basolateral (Papp A→B) at 2 h, 2 μM was determined as 2.55 ×10⁻⁶ cm/s; the Papp B→A at 2 h, 2 μM came to 20.9 ×10⁻⁶ cm/s. Further, in the series with Caco-2 cells, the efflux ratio entry is “lower” and the permeability result is “better”. For the same compound, in series [3], the “maximum plasma concentration in rats” value is “higher”, the “oral bioavailability in rats” value is reported as “higher”, the bioavailability amounted to 65.5% and the Cmax was 1600 ng/mL. Also, in series [3], the Tmax was 0.583 h, the half-life was 3.41 h, the AUC(0-t) stood at 6030 ng·h/mL and the time to peak entry is “shorter”. In addition, in series [1], the IC50 was under 0.2 µM.

With `COCCO[C@H]1CCN(Cc2c(OC)cc(C)c3[nH]ccc23)[C@H](c2ccc(C(=O)O)cc2)C1` [Trifluoroacetate of compound 3, 4-[(2S,4S)-1-[(5-methoxy-7-methyl-1H-indol-4-yl)methyl]-4-(2-methoxyethoxy)piperidin-2-yl]benzoic acid], the IC50 in series [1] is under 0.2 µM.

In the case of `COc1cc(C)c2[nH]ccc2c1CN1CC[C@H](C2CC2)C[C@H]1c1ccc(C(=O)O)cc1` [Trifluoroacetate of compound 5-1 (diastereomer 2), 4-((2S)-4-cyclopropyl-1-((5-methoxy-7-methyl-1H-indol-4-yl)methyl)piperidin-2-yl)benzoic acid], the IC50 in series [1] is under 0.2 µM.

Take `[2H]C([2H])([2H])Oc1cc(C)c2[nH]ccc2c1CN1CC[C@H](C2CC2)C[C@H]1c1ccc(C(=O)O)cc1` [Trifluoroacetate of compound 7 (diastereomer 1), 4-((2S)-4-cyclopropyl-1-((5-(methoxy-d3)-7-methyl-1H-indol-4-yl)methyl)piperidin-2-yl)benzoic acid]: in series [4], the bioavailability in monkeys entry is “higher”, the “oral exposure in monkeys” value is listed as “higher”, the bioavailability came to 98.3 ± 7.5% and the AUC(0-t) turned out to be 48300 ± 3660 ng·h/mL. Moreover, in series [2], the bioavailability was found to be 75.5%, the AUC(0-t) worked out at 45400 ng·h/mL and the half-life is 15.1 h. For the same compound, in “Caco2 permeability test”, the Papp A→B at 2 h, 2 μM amounted to 1.77 ×10⁻⁶ cm/s and the Papp B→A at 2 h, 2 μM was 19.4 ×10⁻⁶ cm/s. Moreover, the permeability entry with Caco-2 cells is given as “better”. In addition, in series [3], the “maximum plasma concentration in rats” value is recorded as “higher”, the “oral bioavailability in rats” value was “higher”, the bioavailability was determined as 72.1% and the concentration peaked (Cmax) at 1130 ng/mL. Besides, in series [3], the half-life is 3.2 h and the AUC(0-t) came to 9160 ng·h/mL. For the same compound, the IC50 in series [1] is under 0.2 µM.
